Reference: US8993509B2, “Method for treatment of cachexia by administering inhibitors of adipose triglyceride lipase expression or activity” (priority 2010, dated 2015)

Legend:
[1] = target: T1, ATGL (Mus musculus, UniProt Q8BJ56); assay: Lipase assay (triglyceride hydrolase assay) with candidate inhibitors; assay type: biochemical; details: versus control (DMSO), FIG. 9
T1 construct: The lipid-free infranatant (cytosolic fraction) was collected and, used for triacyl-glycerol (TG) hydrolase assays; from tissue; host or cells: mouse white adipose tissue, cytosolic fraction (100,000 g infranatant)
T1 sequence (Q8BJ56 1-486): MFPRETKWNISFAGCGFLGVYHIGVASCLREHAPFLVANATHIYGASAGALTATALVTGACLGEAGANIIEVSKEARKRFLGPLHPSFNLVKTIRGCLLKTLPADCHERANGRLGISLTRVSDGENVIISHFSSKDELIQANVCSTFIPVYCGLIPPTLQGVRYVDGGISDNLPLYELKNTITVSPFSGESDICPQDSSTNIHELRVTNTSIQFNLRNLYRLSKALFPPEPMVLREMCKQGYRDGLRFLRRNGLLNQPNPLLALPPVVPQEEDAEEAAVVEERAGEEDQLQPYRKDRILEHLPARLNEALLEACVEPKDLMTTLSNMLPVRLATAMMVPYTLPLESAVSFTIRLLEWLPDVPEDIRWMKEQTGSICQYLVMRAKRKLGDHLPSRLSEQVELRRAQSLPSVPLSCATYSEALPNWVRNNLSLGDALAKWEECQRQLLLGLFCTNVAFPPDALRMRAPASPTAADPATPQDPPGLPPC
Protocol: Mesenteric, retroperitoneal, omental and, gonadal white adipose tissues (WAT) of wild-type (wt), Adipose Tri-Glyceride Lipase-knockout (ATGL-ko) and, Hormone Sensitive Lipase-knockout (HSL-ko) mice were removed surgically and, washed in phosphate-buffered saline (PBS) containing 1 mM ethylenediaminetetraacetic-acid (EDTA). The tissue was homogenized in lysis buffer (0.25 M sucrose, 1 mM EDTA, 1 mM dithiothreitol, 20 μg/ml leupeptin, 2 μg/ml antipain, 1 μg/ml pepstatin, pH 7.0) using a Magna Lyser (Roche diagnostics GmbH, Mannheim, Germany). The WAT lysate was centrifuged at 100,000 g for 1 hour (h) at 4° C. The lipid-free infranatant (cytosolic fraction) was collected and, used for triacyl-glycerol (TG) hydrolase assays. The substrate for the measurement of lipase activity containing triolein and [9, 10-3H(N)-triolein] (NEN Life Science Products, Boston, Mass.) as radioactive tracer was emulsified with phosphatidylcholine/phosphatidylinositol using a conventional ultrasound sonicator. The cytosolic fractions supplemented with or, without a specific inhibitor for HSL were incubated at 37° C. for 60 min under constant shaking. The reaction was terminated by addition of 3.25 ml methanol/chloroform/heptane (10:9:7) and, 1 ml of 0.1 M potassium carbonate and, 0.1 M boric acid (pH 10.5). After centrifugation at 800 g for 20 minutes (min) the radioactivity in 1 ml of the upper phase was determined by liquid scintillation counting in a LS 6500 Multi-Purpose Scintillation Counter from Beckman Coulter Inc. (Fullerton, Calif.).
For determination of lipase activity 0.1 ml of cytosolic extracts and 0.1 ml substrate are incubated in a water bath at 37° C. for 60 min. The reaction is terminated by adding 3.25 ml of methanol/chloroform/heptane (10:9:7) and 1 ml of 0.1 M potassium carbonate, 0.1 M boric acid, pH 10.5. After centrifugation (800 g, 20 min) the radioactivity in 1 ml of the upper phase is determined by liquid scintillation counting. Neutral lipase activity is measured in 50 mM potassium phosphate buffer, pH 7.0 and 2.5% defatted BSA. The substrate for neutral TG lipase activity contained 33 nmol triolein/assay with [9,10-^3H(N)]-triolein (40.000 cpm/nmol, NEN Life Science Products) as radioactive tracer for COS-7 cells and 167 nmol/assay for 3T3-L1 adipocytes (7300 cpm/nmol). The substrates for cholesteryl esterase and retinyl esterase activity contained 10 nmol/assay of cholesteryl oleate or retinyl palmitate and the corresponding tracers cholesteryl [9,10-^3H]-oleate or retinyl [9,10-^3H(N)]-palmitate (50.000 cpm/nmol). For determination of phospholipase activity in cytosolic extracts the substrate contained 20 nmol/assay phosphatidylcholine and [dipalmitoyl-1-^14C]-phosphatidylcholine (12.000 cpm/nmol). […]

[2] = target: T2, ATGL (Homo sapiens, UniProt Q96AD5); details: expressed ATGL or native ATGL in hepatocytes; cited from earlier work
T2 sequence (Q96AD5 1-504): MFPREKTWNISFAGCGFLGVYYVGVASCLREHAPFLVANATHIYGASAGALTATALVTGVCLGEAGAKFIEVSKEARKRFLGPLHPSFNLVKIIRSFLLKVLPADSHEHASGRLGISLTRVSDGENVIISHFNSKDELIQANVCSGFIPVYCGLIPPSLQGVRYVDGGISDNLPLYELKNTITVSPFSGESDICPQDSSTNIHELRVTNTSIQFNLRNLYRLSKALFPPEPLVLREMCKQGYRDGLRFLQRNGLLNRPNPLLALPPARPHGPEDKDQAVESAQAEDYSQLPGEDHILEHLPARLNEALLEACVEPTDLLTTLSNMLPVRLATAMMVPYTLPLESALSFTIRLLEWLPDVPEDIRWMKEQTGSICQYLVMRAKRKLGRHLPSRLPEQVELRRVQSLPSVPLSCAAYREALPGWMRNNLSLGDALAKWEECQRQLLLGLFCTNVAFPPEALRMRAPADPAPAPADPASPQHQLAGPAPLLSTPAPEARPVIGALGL

[3] = target: T3, iPLA2β (Homo sapiens, UniProt O60733); details: cited from earlier work
T3 sequence (O60733 1-806): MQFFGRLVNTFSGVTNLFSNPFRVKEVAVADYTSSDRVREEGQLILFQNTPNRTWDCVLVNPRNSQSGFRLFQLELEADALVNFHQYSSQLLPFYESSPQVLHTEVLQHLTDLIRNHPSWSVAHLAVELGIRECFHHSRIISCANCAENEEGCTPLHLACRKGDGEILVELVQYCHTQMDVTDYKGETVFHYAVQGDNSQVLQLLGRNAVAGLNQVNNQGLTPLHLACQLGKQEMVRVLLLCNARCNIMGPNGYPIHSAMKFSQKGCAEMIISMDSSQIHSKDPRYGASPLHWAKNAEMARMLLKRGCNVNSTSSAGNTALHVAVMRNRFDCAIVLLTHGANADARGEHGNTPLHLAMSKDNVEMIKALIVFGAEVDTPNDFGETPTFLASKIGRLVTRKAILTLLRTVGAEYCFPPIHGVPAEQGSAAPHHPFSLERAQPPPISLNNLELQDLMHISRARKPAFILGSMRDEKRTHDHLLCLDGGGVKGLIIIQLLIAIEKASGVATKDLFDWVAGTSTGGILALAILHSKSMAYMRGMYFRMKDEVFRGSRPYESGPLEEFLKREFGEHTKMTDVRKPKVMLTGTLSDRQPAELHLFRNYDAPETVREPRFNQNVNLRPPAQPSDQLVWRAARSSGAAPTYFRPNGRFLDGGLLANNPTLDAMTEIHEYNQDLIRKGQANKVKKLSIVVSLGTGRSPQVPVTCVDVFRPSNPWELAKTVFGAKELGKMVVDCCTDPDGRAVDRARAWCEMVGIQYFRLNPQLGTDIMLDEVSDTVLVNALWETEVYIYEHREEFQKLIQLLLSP

[4] = target: T4, iPLA2γ (Homo sapiens, UniProt Q9NP80); details: cited from earlier work
T4 sequence (Q9NP80 1-782): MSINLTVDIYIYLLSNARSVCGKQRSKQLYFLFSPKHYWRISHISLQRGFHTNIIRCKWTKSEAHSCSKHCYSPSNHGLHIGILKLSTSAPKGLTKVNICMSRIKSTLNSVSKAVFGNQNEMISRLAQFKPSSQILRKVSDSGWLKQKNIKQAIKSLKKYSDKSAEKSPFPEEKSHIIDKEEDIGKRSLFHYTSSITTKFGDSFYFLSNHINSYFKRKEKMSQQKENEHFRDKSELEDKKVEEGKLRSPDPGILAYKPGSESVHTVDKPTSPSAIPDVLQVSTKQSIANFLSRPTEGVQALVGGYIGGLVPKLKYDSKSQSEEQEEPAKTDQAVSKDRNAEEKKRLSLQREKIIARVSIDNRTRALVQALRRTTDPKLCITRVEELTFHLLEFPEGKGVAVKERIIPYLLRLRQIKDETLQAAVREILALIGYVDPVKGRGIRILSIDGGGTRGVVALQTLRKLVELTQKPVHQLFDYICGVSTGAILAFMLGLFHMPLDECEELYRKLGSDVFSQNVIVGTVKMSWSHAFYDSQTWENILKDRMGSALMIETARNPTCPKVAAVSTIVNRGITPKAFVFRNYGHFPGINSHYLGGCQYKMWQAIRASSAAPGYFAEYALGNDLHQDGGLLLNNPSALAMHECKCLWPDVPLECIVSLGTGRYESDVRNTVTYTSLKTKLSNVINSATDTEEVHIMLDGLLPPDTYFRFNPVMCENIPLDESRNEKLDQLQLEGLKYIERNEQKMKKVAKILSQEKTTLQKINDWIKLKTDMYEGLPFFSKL

inhibition of ATGL (ATGL activity, % control) [1] | SMILES | ATGL inhibition activity [2] | inhibition of iPLA2β [3] | inhibition of iPLA2γ [4]
inhibit ATGL | CN(C)/N=C/c1ccccc1OC(=O)c1cccnc1 [Compound 7] |  |  | 
inhibit ATGL | CCOC(=O)c1nn(-c2ccc(OCC)cc2)cc1O [Compound 9] |  |  | 
largest degree of inhibition | Oc1ccc(/C=N/N2CCN(c3ccccc3)CC2)cc1O [Compound 4] |  |  | 

Further lines, the compound ahead of its results:

SMILES | inhibition of ATGL (ATGL activity, % control) [1] | ATGL inhibition activity [2] | inhibition of iPLA2β [3] | inhibition of iPLA2γ [4]
COC(=O)C(O)(c1cc(C)c(O)c(C)c1)C(F)(F)F (stereo not shown) [Compound 3] | inhibit ATGL |  |  | 
O=C1O/C(=C/Br)CC[C@@H]1c1cccc2ccccc12 [(R)-Bromoenol lactone] |  | ATGL inhibition activity | inhibits | inhibits
